Assay results taken from US6423334B1, “Composition and method for enhancing transport across gastrointestinal tract cell layers” (priority 1997, dated 2002).

Assays:
Caco-2 monolayers [1] = assay: TEER of Caco-2 monolayers during flux experiments; format: cell-based, human; conditions: for overall decrease in resistance (TEER) of control cells / decrease in TEER: 2 hour flux; for overall decrease in resistance (TEER) of control cells: labelled drug alone, no enhancer
Experimental: Part a: Caco-2 monolayers (passage 20-40; 20-30 days post seeding on filters) were treated apically for 20-30 min with the 8mM and 40 mM Babassu oil in Hanks+25 mM Hepes. The oil was removed and replaced with Hanks containing 100 IU/ml Kraeber low molecular weight heparin. […] Transepithelial electrical resistance (TEER) measurements were taken at regular intervals for 20 min and subsequently every 30 min after the oil was removed with the Evohmeter (WPI) and chopsticks as shown in Table 4. The results are expressed as mean±S.E. (statistical differences examined using the two sided independent t-test).
(§1) A further 2 hour transepithelial transport study was carried out as above for [^3H]-TRH (0.12 nM) except that excess TRH (cold, 4.4 mM; Bachem, UK) was also administered apically. […] No significant difference between TRH Papp values at low concentrations (0.05-0.1 nM) and high TRH concentrations (4.4 mM) was observed providing evidence of passive TRH absorption across the monolayer.
(§2) Statistically significant differences existed between Babassu TEER results and those of the other oils (2 mM) at each 30 minute interval except between Babassu oil and Almond oil at the T=30 sampling. No significant differences in TEER was observed between Almond oil, Palm Kernel oil and Maize oil. The average 30% reduction in TEER observed for Almond, Palm Kernel and Maize oils at 2 mM during the 2 hour flux was not evident in the presence of Babassu oil (2 mM).

Caco-2 monolayers [2] = assay: Flux of [3H]-TRH across Caco-2 monolayers; format: in vitro ADME, human
Experimental: (§3) The cell monolayers were incubated as given in Example 4 above.
as §1, §2

[3] = Flux of [3H]-TRH across Caco-2 monolayers; format: in vitro ADME, human; conditions: human, Caco-2
Experimental: as §3, §1, §2

in vitro = conditions: human
Experimental: (§4) The cell monolayers were incubated with prewarmed Hanks balanced salt solution (HBSS modified by adding 1 g glucose/I—final concentration 11 mM glucose and 24 mM Hepes, pH 7.4) at 37° C. for 30 minutes, adding 1 ml to apical and 2 ml to the basolateral side. At T=0, apical HBSS was replaced with 1 ml HBSS containing the mannitol transport solution and the plates were placed in a 37° C. incubator on an orbital shaker. Samples were taken from the apical side at T=0 and T=120 min and from the basolateral side every 30 min. The resulting samples were measured by liquid scintillation spectrophotometry using a Wallac 1409.
(§5) An experiment similar to the above transepithelial transport of mannitol experiment was conducted except that cytochalasin D (1 μg/ml), a potent tight junction opener, was added apically and basolaterally at time zero instead of the Babassu oil.
(§6) Following the procedures of the 2 hour flux experiments of Example 4 above, [^3H]-mannitol (0.04 nM) was added apically to Caco-2 monolayers in the presence of 0.1 mM, 5.0 mM, and 10 mM Almond Oil, 0.1 mM, 2.0 mM, 2.5 mM, 5.0 mM and 10 mM Palm Kernel oil as well as 0.1 mM, 1 mM and 2 mM Maize oil.

Caco-2 monolayers [4] = conditions: human, Caco-2, 2 h, 0.04 nM, pH 7.4
Experimental: as §4, §5, §6

Compound	overall decrease in resistance (TEER) of control cells (Caco-2 monolayers [1]) [%]	reduction in TEER (Caco-2 monolayers [1]; [3H]-TRH 0.12 nM in the presence and absence of excess cold TRH (4.4 mM), 2 hours)	TRH transported across the Caco-2 monolayer (Caco-2 monolayers [2]; Caco-2) [%]	Papp A→B at 2 h, 0.12 nM [3] [×10⁻⁶ cm/s]	Papp A→B at 2 h, 0.2 nM [3] [×10⁻⁶ cm/s]	decrease in TEER (Caco-2 monolayers [1]; Cytochalasin D with [3H]-TRH) [%]	decrease in TEER (Caco-2 monolayers [1]; Cytochalasin D with [3H]-mannitol) [%]	reduction in TEER (Caco-2 monolayers [1]; cytochalasin D 1 μg/ml apically and basolaterally, mannitol flux) [%]	initial reduction in TEER (Caco-2 monolayers [1]; cytochalasin D 1 μg/ml, TRH flux, first hour) [%]	additional reduction in TEER (Caco-2 monolayers [1]; cytochalasin D 1 μg/ml, TRH flux, remaining hour) [%]	apparent permeability coefficient (Papp) of TRH (Caco-2 monolayers [2]; in the presence of cytochalasin D 1 μg/ml) [×10⁻⁶ cm/s]	Papp A→B at 2 h, 0.04 nM (in vitro; Caco-2, pH 7.4, Papp) [×10⁻⁶ cm/s]	Papp A→B at 2 h, 0.04 nM (in vitro; Caco-2, pH 7.4, apparent permeability coefficient (Papp) of mannitol) [×10⁻⁶ cm/s]	% Transport per hour (Caco-2 monolayers [4]) [%]
NC(=O)[C@@H]1CCCN1C(=O)[C@H](Cc1cnc[nH]1)NC(=O)[C@@H]1CCC(=O)N1 [TRH, Thyrotropin releasing hormone]	29.2	approximately 20%	0.2	0.53	0.72 ± 0.025	–	–	–	–	–	–	–	–	–
C=C1[C@@H](C)[C@H]2[C@H](Cc3ccccc3)NC(=O)[C@]23[C@H](OC(C)=O)/C=C/[C@@](C)(O)C(=O)[C@@H](C)C/C=C/[C@H]3[C@@H]1O [cytochalasin D]	–	–	–	–	–	50	59	60	40	22	5.7	–	–	–
OC[C@@H](O)[C@@H](O)[C@H](O)[C@H](O)CO [mannitol, mannitol, D -[1-^3H (n)]]	12.8	–	–	–	–	–	–	–	–	–	–	0.79 ± 0.03	0.79	0.28
